Data taken from patent US20050112573A1, “Method of detecting toxic substance” (priority 2001, published 2005).

System: yeast genes (level of expressed mRNA)
Test: DNA chip analysis of expressed mRNA of yeast genes after 2 h culture with a toxic chemical substance
Format: cell-based, Saccharomyces cerevisiae S288C
Conditions: for The level of expressed mRNA in the presence of chemical substance/ (ratio to absence of chemical substance): stress protein genes, DNA chip
Method: Yeast (Saccharomyces cerevtisiae S288C (α SUC2mal mel gap2 CUP1)) were cultured at 25° C. on YPD medium (yeast extract 1%, polypepton 2%, glucose 2%). One of toxic chemical substances was added to the cell at logarithmic growth phase, and the cell was further cultured for two hours. Cell was cultured without any chemical substance in the same condition, and was used as control. Concentrations of the chemical substances were defined to inhibit the growth of the yeast but not lead to death.
After the completion of cultivation, the culture was centrifuged to collect the cells. To the cells, sodium acetate buffer (50 mM sodium acetate, 10 mM EDTA, 1% SDS) was added, and the mixture was shaken at 65° C. for five minutes, followed by returning to room temperature, and obtaining the supernatant, which procedure was repeated two times. To the supernatant, ½ amount of a solution of phenol/chloroform was added, and the mixture was centrifuged to give a supernatant, which was added with an equal amount of chloroform, and the mixture was centrifuged to give a supernatant. To the supernatant, an equal amount of isopropanol containing 0.3 M sodium acetate was added, and the mixture was allowed to stand at room temperature for 30 minutes, after which the mixture was centrifuged to give a sediment of the whole RNAs. Seventy % ethanol was added to the sediment, and the mixture was again centrifuged to give a sediment, which was then dried and dissolved in water. mRNA was isolated from the whole RNAs as followings. In view of the fact that a poly A chain is attached to the 3′ terminus of mRNA, a polynucleotide having a poly T structure which was immobilized on the surface of latex beads was used to trap the mRNA, and then the mRNA was washed and eluted with spine column (Oligotex-dT30<Super>mRNA Purification Kit, Takara). Reverse transcription of the mRNA was conducted with a reverse transcriptase (Super Script II Reverse Transcriptase; catalogue No. 18064-014, GibcoBRL) using fluorescence-labeled nucleotides to give cDNAs that were introduced with Cy3-dUTP or Cy5-dUTP during the reverse transcription.
The labeled cDNAs were dissolved in TE buffer (10 mM Tris-HCl/1 mM EDTA, pH8.0), and the solution was dropped on the DNA chip containing the whole genes of yeast (DNA Chip Research Inc. Japan) so that the cDNAs were hybridized on the DNA chip at 65° C. for over 12 hours. The fluoresces intensity of the DNA chip was read with a scanner, and the ratio relative to the fluorescence intensity resulting from the absence of chemical substance was estimated as the following, which is shown in Tables 1 to 9: [formula]
In the Tables, “Intensity” indicated in the rightmost column is a value of the level of expressed mRNA of each gene in control cells as divided by the average level of the expressions of the whole genes.

How did the “The level of expressed mRNA in the presence of chemical substance/ in its absence, gene YDL078C” value (yeast gene YDL078C, ratio of DNA chip fluorescence intensity to that without chemical substance) turn out when `CCCCCCCCCCCCOS(=O)(=O)[O-].[Na+]` [(18), sodium lauryl sulfate] was run?
The value was 2.0.

And the “The level of expressed mRNA in the presence of chemical substance/ (in its absence), gene YDL215C” value (yeast gene YDL215C, ratio of DNA chip fluorescence intensity to that without chemical substance)?
The value was 1.6.

And the “The level of expressed mRNA in the presence of chemical substance/The level of expressed mRNA in the absence of chemical substance” value (yeast gene YDL238C)?
The value was 1.3.

And the “The level of expressed mRNA in the presence of chemical substance/The level of expressed mRNA in the absence of chemical substance” value (yeast gene YDR055W)?
The value was 1.9.

What about the “The level of expressed mRNA in the presence of chemical substance/ (in its absence), gene YDR073W” value (yeast gene YDR073W, ratio of DNA chip fluorescence intensity to that without chemical substance) of the same molecule?
Its value is 2.3.

What about the “The level of expressed mRNA in the presence of chemical substance/ in its absence, gene YDR079W” value (yeast gene YDR079W, energy system protein genes, 2 h culture with the chemical, ratio to control without chemical) of the same molecule?
The value was 1.3.

And the “The level of expressed mRNA in the presence of chemical substance/ (ratio to absence), gene YDR079W” value (yeast gene YDR079W, mitochondria-located protein genes, 2 h culture with chemical)?
The value was 1.3.

What about the “The level of expressed mRNA in the presence of chemical substance/The level of expressed mRNA in the absence of chemical substance” value (yeast gene YDR084C) of the same molecule?
Its value is 1.3.

And the “The level of expressed mRNA in the presence of chemical substance/The level of expressed mRNA in the absence of chemical substance” value (yeast gene YDR085C)?
The value was 1.8.

What about the “The level of expressed mRNA in the presence of chemical substance/The level of expressed mRNA in the absence of chemical substance” value (yeast gene YDR104C) of the same molecule?
The value was 1.0.

What about the “The level of expressed mRNA in the presence of chemical substance/The level of expressed mRNA in the absence of chemical substance” value (yeast gene YDR115W) of the same molecule?
Its value is 1.4.

What about the “The level of expressed mRNA in the presence of chemical substance/The level of expressed mRNA in the absence of chemical substance” value (yeast gene YDR259C) of the same molecule?
Its value is 0.8.

What about the “The level of expressed mRNA in the presence of chemical substance/ (in its absence), gene YDR297W” value (yeast gene YDR297W, ratio of DNA chip fluorescence intensity to that without chemical substance) of the same molecule?
The value was 1.9.

What about the “The level of expressed mRNA in the presence of chemical substance/The level of expressed mRNA in the absence of chemical substance” value (yeast gene YDR315C) of the same molecule?
The value was 1.2.

And the “The level of expressed mRNA in the presence of chemical substance/The level of expressed mRNA in the absence of chemical substance” value (yeast gene YDR358W)?
The value was 1.9.

What about the “The level of expressed mRNA in the presence of chemical substance/ (ratio to absence), gene YDR377W” value (yeast gene YDR377W, mitochondria-located protein genes, 2 h culture with chemical) of the same molecule?
The value was 2.5.

What about the “The level of expressed mRNA in the presence of chemical substance/ (in its absence), gene YDR387C” value (yeast gene YDR387C, ratio of DNA chip fluorescence intensity to that without chemical substance) of the same molecule?
Its value is 1.1.

What about the “The level of expressed mRNA in the presence of chemical substance/The level of expressed mRNA in the absence of chemical substance” value (yeast gene YDR388W) of the same molecule?
The value was 1.3.

And the “The level of expressed mRNA in the presence of chemical substance/The level of expressed mRNA in the absence of chemical substance” value (yeast gene YDR432W)?
The value was 0.7.

And the “The level of expressed mRNA in the presence of chemical substance/The level of expressed mRNA in the absence of chemical substance” value (yeast gene YDR481C)?
The value was 1.4.

What about the “The level of expressed mRNA in the presence of chemical substance/The level of expressed mRNA in the absence of chemical substance” value (yeast gene YDR510W) of the same molecule?
Its value is 1.5.

And the “The level of expressed mRNA in the presence of chemical substance/ (ratio to absence of chemical substance)” value (yeast gene YEL039C)?
The value was 1.1.

And the “The level of expressed mRNA in the presence of chemical substance/The level of expressed mRNA in the absence of chemical substance” value (yeast gene YEL042W)?
Its value is 0.8.

And the “The level of expressed mRNA in the presence of chemical substance/The level of expressed mRNA in the absence of chemical substance” value (yeast gene YEL066W)?
The value was 1.1.

And the “The level of expressed mRNA in the presence of chemical substance/ (in its absence), gene YER015W” value (yeast gene YER015W, ratio of DNA chip fluorescence intensity to that without chemical substance)?
The value was 2.6.

And the “The level of expressed mRNA in the presence of chemical substance/The level of expressed mRNA in the absence of chemical substance” value (yeast gene YER039C)?
Its value is 1.1.

What about the “The level of expressed mRNA in the presence of chemical substance/ (ratio to absence of chemical substance)” value (yeast gene YER057C) of the same molecule?
The value was 1.8.

And the “The level of expressed mRNA in the presence of chemical substance/The level of expressed mRNA in the absence of chemical substance” value (yeast gene YER107C)?
The value was 1.2.

What about the “The level of expressed mRNA in the presence of chemical substance/The level of expressed mRNA in the absence of chemical substance” value (yeast gene YER130C) of the same molecule?
The value was 2.5.

What about the “The level of expressed mRNA in the presence of chemical substance/The level of expressed mRNA in the absence of chemical substance” value (yeast gene YFL028C) of the same molecule?
The value was 1.5.

What about the “The level of expressed mRNA in the presence of chemical substance/The level of expressed mRNA in the absence of chemical substance” value (yeast gene YFL043C) of the same molecule?
Its value is 1.2.

And the “The level of expressed mRNA in the presence of chemical substance/ (in its absence), gene YGL035C” value (yeast gene YGL035C, ratio of DNA chip fluorescence intensity to that without chemical substance)?
The value was 1.2.

And the “The level of expressed mRNA in the presence of chemical substance/ (in its absence), gene YGL115W” value (yeast gene YGL115W, ratio of DNA chip fluorescence intensity to that without chemical substance)?
The value was 1.2.

What about the “The level of expressed mRNA in the presence of chemical substance/ (ratio to absence of chemical substance)” value (yeast gene YGL115W) of the same molecule?
The value was 1.2.

What about the “The level of expressed mRNA in the presence of chemical substance/The level of expressed mRNA in the absence of chemical substance” value (yeast gene YGL158W) of the same molecule?
The value was 1.1.

What about the “The level of expressed mRNA in the presence of chemical substance/ (ratio to absence), gene YGL187C” value (yeast gene YGL187C, mitochondria-located protein genes, 2 h culture with chemical) of the same molecule?
Its value is 2.4.

What about the “The level of expressed mRNA in the presence of chemical substance/ (in its absence), gene YGL205W” value (yeast gene YGL205W, ratio of DNA chip fluorescence intensity to that without chemical substance) of the same molecule?
Its value is 9.1.

And the “The level of expressed mRNA in the presence of chemical substance/The level of expressed mRNA in the absence of chemical substance” value (yeast gene YGL229C)?
Its value is 0.9.

What about the “The level of expressed mRNA in the presence of chemical substance/ in its absence, gene YGR062C” value (yeast gene YGR062C, energy system protein genes, 2 h culture with the chemical, ratio to control without chemical) of the same molecule?
The value was 1.1.

What about the “The level of expressed mRNA in the presence of chemical substance/ (ratio to absence), gene YGR062C” value (yeast gene YGR062C, mitochondria-located protein genes, 2 h culture with chemical) of the same molecule?
The value was 1.1.

And the “The level of expressed mRNA in the presence of chemical substance/ (in its absence), gene YGR096W” value (yeast gene YGR096W, ratio of DNA chip fluorescence intensity to that without chemical substance)?
The value was 1.0.

What about the “The level of expressed mRNA in the presence of chemical substance/The level of expressed mRNA in the absence of chemical substance” value (yeast gene YGR136W) of the same molecule?
Its value is 1.8.

And the “The level of expressed mRNA in the presence of chemical substance/The level of expressed mRNA in the absence of chemical substance” value (yeast gene YGR189C)?
The value was 1.7.

What about the “The level of expressed mRNA in the presence of chemical substance/The level of expressed mRNA in the absence of chemical substance” value (yeast gene YGR213C) of the same molecule?
The value was 8.5.

And the “The level of expressed mRNA in the presence of chemical substance/The level of expressed mRNA in the absence of chemical substance” value (yeast gene YGR257C)?
The value was 1.3.

And the “The level of expressed mRNA in the presence of chemical substance/ (in its absence), gene YGR287C” value (yeast gene YGR287C, ratio of DNA chip fluorescence intensity to that without chemical substance)?
Its value is 1.1.

What about the “The level of expressed mRNA in the presence of chemical substance/ (in its absence), gene YGR288W” value (yeast gene YGR288W, ratio of DNA chip fluorescence intensity to that without chemical substance) of the same molecule?
The value was 1.3.

And the “The level of expressed mRNA in the presence of chemical substance/ (ratio to absence of chemical substance)” value (yeast gene YHL028W)?
Its value is 2.5.

And the “The level of expressed mRNA in the presence of chemical substance/ (ratio to absence of chemical substance)” value (yeast gene YHL046C)?
Its value is 0.9.

And the “The level of expressed mRNA in the presence of chemical substance/The level of expressed mRNA in the absence of chemical substance” value (yeast gene YHR004C)?
Its value is 1.6.

What about the “The level of expressed mRNA in the presence of chemical substance/The level of expressed mRNA in the absence of chemical substance” value (yeast gene YHR071W) of the same molecule?
The value was 1.0.

And the “The level of expressed mRNA in the presence of chemical substance/The level of expressed mRNA in the absence of chemical substance” value (yeast gene YHR139C)?
Its value is 1.3.

What about the “The level of expressed mRNA in the presence of chemical substance/The level of expressed mRNA in the absence of chemical substance” value (yeast gene YHR142W) of the same molecule?
Its value is 1.3.

And the “The level of expressed mRNA in the presence of chemical substance/ (in its absence), gene YHR210C” value (yeast gene YHR210C, ratio of DNA chip fluorescence intensity to that without chemical substance)?
The value was 1.2.

And the “The level of expressed mRNA in the presence of chemical substance/ (in its absence), gene YIL006W” value (yeast gene YIL006W, ratio of DNA chip fluorescence intensity to that without chemical substance)?
Its value is 0.9.

And the “The level of expressed mRNA in the presence of chemical substance/ (ratio to absence of chemical substance)” value (yeast gene YIL011W)?
Its value is 0.8.

What about the “The level of expressed mRNA in the presence of chemical substance/The level of expressed mRNA in the absence of chemical substance” value (yeast gene YIL123W) of the same molecule?
Its value is 1.0.
